Laboratory results published in EP2402030A1, “Linear IgE peptide epitopes of celery allergen api 1” (Charité Universitätsmedizin Berlin, priority 2010, dated 2012).

System: human IgE antibodies
Experiment: Human IgE antibody binding to SPOT-synthesized 12-meric Api g 1.0101 peptide arrays on N-CAPE cellulose membranes, probed with sera, HRP-labeled anti-human IgE, chemiluminescence
Settings: for celery allergic individuals responding to the peptide (positive IgE antibody binding spot) / number of celery allergic patients whose sera IgE antibodies bind the sequence / recognition by sera of celery allergic patients: sera of 21 celery allergic patients; for celery allergic individuals responding to the peptide (positive IgE antibody binding spot) / IgE binding in sera of healthy controls / recognition by sera of celery allergic patients: diluted 1:5; for celery allergic individuals responding to the peptide (positive IgE antibody binding spot): positive if SInorm above the membrane's cut off value; for IgE binding in sera of healthy controls: sera of 17 healthy subjects
Excerpt: The protein sequence of the major allergen in celery Api g 1.0101 (UniprotKB/Swissprot entry P49372) was dissected into sets of overlapping peptides (pepscan). Subsequently, these sequences were synthesized as peptide arrays on cellulose membranes according to SPOT technology. A highly specific secondary anti-human IgE antibody with minimum cross-reactivity towards cellulose membrane-bound peptides was employed.
Synthetic arrays were probed with sera randomly chosen from a well described cohort of subjects, including 21 patients with a defined allergic reaction to celery and 17 healthy individuals. Captured human IgE antibodies were detected by a HRP-labeled secondary antibody and binding was visualized by chemiluminescence.
The optimal conditions for screening the sera of 21 celery allergic patients and 17 healthy controls were as follows: (i) replica of a 12-meric pepscan with a shift of three amino acids covering the Api g 1.0101 sequence synthesized on high-loaded N-CAPE membranes (640 nmol/cm2 - 760 nmol/cm2); (ii) prior to treatment with sera, membranes were blocked with the Sigma-Genosys blocking buffer for 2 h at room temperature; (iii) arrays were probed for 16 h at 4°C with diluted sera (1:5) for IgE antibody binding; (iv) the captured human IgE antibodies were detected with the HRP-labeled anti-human IgE antibody (A 9667, Sigma-Aldrich) and visualized by chemiluminescence; (v) spot signal intensities were measured on a LumiImager and processed with the LumiAnalyst software. To check the reproducibility of our screening procedure, three different peptide arrays were incubated and evaluated for each person (allergic and healthy).
Sera binding patterns could be reproduced in repeated incubation experiments. Although inter-membrane absolute spot signal intensities differed, the relative differences between spot signal intensities were nearly the same. This enabled comparison of spot signal intensities from different membranes by applying an additional normalization procedure. We defined an IgE antibody binding spot as positive if its normalized signal intensity (SInorm) was higher than the calculated cut off value of the appropriate membrane.
Human IgE antibody binding studies: The spotted peptide arrays were prewashed with ethanol (1 × 10 min), washed with Tris-buffered saline (TBS), pH 8.0 (3 × 10 min), and blocked for 2 h at room temperature with blocking buffer. The membranes were incubated with the patients' sera (dilution 1:5) in blocking buffer overnight at 4°C, washed with TBS, followed by a second incubation with anti-human IgE antibody (ε-chain specific) conjugated with horse radish peroxidase (HRP) (A 9667, Sigma-Aldrich, St. Louis, USA) in blocking buffer for 2 h at room temperature. To remove excess antibody the membrane was washed with TBS (3x10 min). Detection was performed with Uptilight HRP blot chemiluminescent substrate (Uptima, Interchim, Montiuçon Cedex, France) with an exposure time of 2 min. The signal intensities were recorded as Biomedical Light Units (BLU) by a Lumi Imager™ (Boehringer Mannheim GmbH, Mannheim, Germany) using the LumiAnalyst software.
Measurement of spot signal intensities: Analysis and measurement of spot signal intensities were executed with the LumiAnalyst software, version 3.1 (Boehringer Mannheim GmbH, Mannheim, Germany). The spot signal was calculated from a circular region around the spot center detected on the image. To guarantee uniform spot signal assessment, and reduce signal variations caused by the background, we choose the background correction method in the LumiAnalyst software. This method allows local background correction when calculating the BLU of each spot. The background values of each spot were determined from BLU values around the spot with a safety margin and normalized to the area of the spot. Comparing replicas of several membranes, incubated under identical conditions, we found signal intensity deviations of a factor of 11. […]

| celery allergic individuals responding to the peptide (positive IgE antibody binding spot) | Sequence | IgE binding in sera of healthy controls | number of celery allergic patients whose sera IgE antibodies bind the sequence | further results |
| --- | --- | --- | --- | --- |
| 29% | IITLPDGGPITT [compound 19, 12-meric peptide of Api g 1.0101] | – | – | – |
| 38% | IFQGFVIDVDTV [peptide 7, 12-meric peptide of Api g 1.0101] | not reacting with any sera IgE antibody from healthy subjects | at least six | – |
| 29% | GGPITTMTLRID [compound 21, 12-meric peptide of Api g 1.0101] | – | – | – |
| 38% | GDGGPGTLKIIT [compound 16, 12-meric peptide of Api g 1.0101] | – | – | – |
| 43% | PTADGGSICKTT [compound 36, 12-meric peptide of Api g 1.0101] | – | – | – |
| 29% | NHVVLVPTADGG [peptide 34, 12-meric peptide located in the C-terminal region of Api g 1.0101] | not reacting with any sera IgE antibody from healthy subjects | at least six | – |

| Sequence | celery allergic individuals responding to the peptide (positive IgE antibody binding spot) | IgE binding in sera of healthy controls | number of celery allergic patients whose sera IgE antibodies bind the sequence | further results |
| --- | --- | --- | --- | --- |
| VLVPTADGGSIC [peptide 35, 12-meric peptide of Api g 1.0101] | 100% | not reacting with any sera IgE antibody from healthy subjects | at least six | spot signal intensity (average spot signal intensity, Fig. 3): highest measured spot signal intensity; IgE binding in sera of healthy controls (listed as VLVPTADGGSIC): no binding; recognition by sera of celery allergic patients: recognized by the sera from all the celery allergic patients; recognition by sera of celery allergic patients (listed as VLVPTADGGSIC): recognized by all sera of celery allergic patients |
